Results on 1 compound are retold here after patent US11413242B2, “Formulations of Tie-2 activators and methods of use thereof” (EyePoint Pharmaceuticals, Inc., priority 2019, dated 2022).

The nature of test [1]: Intraocular pressure at Baseline and Months 1-3, Compound 1 with sham or RBZ, or placebo with RBZ (TABLE 1, FIG. 2). Format: in vivo. The protocol:
The difference in IOP was determined relative to a pre-treatment baseline (Base) at months 1, 2, and 3 (M1-M3). Intraocular pressure was determined in the study eye in millimeters of mercury (mmHg).
The difference in IOP was determined relative to a pre-treatment Baseline at Months 1, 2, and 3. Intraocular pressure was determined in the study eye/fellow eye in mmHg.

In test [2] the test system is patients with diabetic macular edema. Nature of the test: Change in intraocular pressure from baseline, Compound 1 BID at varying doses, 28 Day EOT (FIG. 1). Format: in vivo, human. To be noted: doses greater than 15 mg BID. Here is the method:
The difference in IOP was determined at the end of the trial, which was 28 days after treatment began (28 Day EOT). Changes in IOP were determined both in the study eye and the fellow eye.

For the compound `COC(=O)N[C@@H](Cc1ccccc1)C(=O)N[C@@H](Cc1ccc(NS(=O)(=O)O)cc1)c1csc(-c2cccs2)n1` [Compound 1], the “IOP, fellow eye” value came out at 14.5 mmHg in test [1] (Month 1), 14.3 mmHg in test [1] (Month 2), 14.0 mmHg in test [1] (Month 3) and 15.4 mmHg in test [1] (pre-treatment Baseline). The “IOP, study eye” value in test [1] (Month 1) was determined as 14.8 mmHg; in test [1] (Month 2), 14.4 mmHg; in test [1] (Month 3), 14.3 mmHg; in test [1] (pre-treatment Baseline), 15.8 mmHg. The “effect on intraocular pressure (IOP) relative to pre-treatment baseline” value in test [2] is recorded as “decreased IOP”.
